# Test results published in patent US20110195505A1, “BACTERIAL STRAINS FOR BUTANOL PRODUCTION” (priority 2009, published 2011).
# Values joined by “and” are separate entries in the source; they are usually repeats but may differ in a detail not shown here. Identical values can stand only once.
# Assays:
# [1] = test system: L. plantarum strain PN0512; assay: Growth yield (OD600) in isobutanol, stearic acid fed and unfed cultures; type: cell-based, Lactobacillus plantarum; conditions: no fatty acid fed, 25 hours, 30° C.
# Experimental: For growth yield experiments, 5 ml of medium with test fatty acids (10-500 mg per liter) and varying concentrations of isobutanol in 15 ml screw cap tubes was inoculated with 12.5 μl of the working stock giving an initial OD600 of 0.012. The caps were tightly sealed and incubated at 30° C. on a roller drum for 20 to 26 hours, at which time 1.0 ml was removed and OD600 was measured with a blank of medium amended with the fatty acid. All solvent concentrations are reported as % (w/v).
# Growth of L. plantarum cultures in the media described in General Methods and containing varying concentrations of isobutanol was measured and compared with the cultures fed (supplemented with) stearic acid at a final concentration of 50 mg per liter of medium. Cultures were prepared as described in General Methods.
# BP63 (ΔfabZ1) [2] = assay: Shake flask growth rate of BP63 with isobutanol and oleic acid; type: cell-based, L. plantarum
# Experimental: Four sets of conditions were prepared. For the first set, 20 mg/l oleic acid was added and isobutanol was added to 0, 1, 1.5, 2 and 2.5% final concentration. In the second set of flasks, 30 mg/L of oleic acid was added to the medium and the following final isobutanol concentrations were used: 0, 1, 1.5, 2, 2.5, and 3% w/v. The third and fourth set of the shake flask cultures were done at oleic acid concentrations of 50 and 55 mg/L. These flasks were placed in a shaking water bath at 30° C. at 80 RPM. Samples were taken at 2, 3, 4, and 5 hrs and the OD600 was measured.
# BP63 (ΔfabZ1) [3] = assay: Growth of BP63 in the presence of isobutanol and oleic acid; type: cell-based, L. plantarum; conditions: for Growth (OD600) of BP63 (ΔfabZ1): 18 hours, 30° C.
# Experimental: The purpose of these experiments was to see if the requirement for oleic acid changed in the presence of isobutanol. Semi-synthetic LAB medium, pH6, supplemented with 75 μg/mL uracil, 2.5 μg/mL hematin was used along with a series of varying concentrations of isobutanol and oleic acid. Oleic was added to the final concentrations of 0, 10, 20, 30, 40, and 50 mg/L. Isobutanol was added to the final concentrations of 0, 1.0, 1.5, 2.0, 2.5, and 3% (w/v). 2.5 mL of media was inoculated with […] of the BP63 working stock. The cultures were incubated at 30° C. without shaking for 18 hours. At 18 hours the OD600 was measured.
# BP63 (ΔfabZ1) [4] = assay: Growth yield (OD600) with oleic acid, fabZ1 deletion strain; type: cell-based, L. plantarum; conditions: for OD600 BP63 (ΔfabZ1): 24 hours, 30° C.
# Experimental: (§1) Strain BP63 (ΔfabZ1, described in Example 4) and the parental strain BP15 (fabZ1^+, described in Example 3) were grown in semi-synthetic LAB medium, pH6, with 75 μg/ml uracil and 2.5 μg/mL hematin in the presence and absence of an unsaturated fatty acid, oleic acid. Cultures were prepared as described in General Methods.
# [5] = test system: BP63 (L. plantarum PN0512ΔpyrFΔfabZ1); assay: Fatty acid supplements supporting growth of the fabZ1 mutant; type: cell-based; conditions: fatty acid supplied at 80 mg/L; overnight incubation, OD600
# Experimental: With 100 or 200 mg/liter of oleic acid the growth of BP63 was equivalent to that of the fabZ1^+ control strain, BP15. […] Thus, we conclude that fabZ1 in L. plantarum has the same function as FabN in E. faecalis (Wang, H. and Cronan, J. E. 2004. Functional replacement of the FabA and FabB proteins of Escherichia coli fatty acid synthesis by Enterococcus faecalis FabZ and FabF homologs. J. Biol. Chem. 279, 34489-95). To further test the range of fatty acid supplements that support growth of the fabZ1 mutant, several other fatty acids were supplied at 80 mg/L to the semi-synthetic LAB medium as described above. BP63 and the parental control BP15 were inoculated from the working stocks. After overnight incubation, the OD600 was measured. The growth of BP15 was not inhibited by any of the fatty acids tested. The Table 9 below summarizes the results for the fabZ1 mutant strain, BP63.
# BP15 (fabZ1^+) = assay: Growth yield (OD600) with oleic acid, parental strain; type: cell-based, L. plantarum; conditions: 24 hours, 30° C.
# Experimental: as §1
compound,measurement,setting,value
"CC(C)CO [Isobutanol, isobutanol]",OD600 unfed control,[1]; 2.3 % w/v isobutanol,0.727
same,OD600 unfed control,[1]; 2.5 % w/v isobutanol,0.341
same,OD600 unfed control,[1]; 2.7 % w/v isobutanol,0.131
same,OD600 unfed control,[1]; 2.9 % w/v isobutanol,0.051
same,effect of isobutanol on growth rate of fabZ1 mutant strain BP63,"BP63 (ΔfabZ1) [2]; shake flask, suboptimal concentrations of oleic acid, FIG. 1",stimulated growth
same,Growth (OD600) of BP63 (ΔfabZ1),"BP63 (ΔfabZ1) [3]; oleic acid 0 mg/liter, iso-butanol 1%",0.0383
same,Growth (OD600) of BP63 (ΔfabZ1),"BP63 (ΔfabZ1) [3]; oleic acid 0 mg/liter, iso-butanol 1.5%",0.0385
same,Growth (OD600) of BP63 (ΔfabZ1),"BP63 (ΔfabZ1) [3]; oleic acid 0 mg/liter, iso-butanol 2%",0.0402
same,Growth (OD600) of BP63 (ΔfabZ1),"BP63 (ΔfabZ1) [3]; oleic acid 0 mg/liter, iso-butanol 2.5%",0.038
same,Growth (OD600) of BP63 (ΔfabZ1),"BP63 (ΔfabZ1) [3]; oleic acid 0 mg/liter, iso-butanol 3%",0.0351
same,Growth (OD600) of BP63 (ΔfabZ1),"BP63 (ΔfabZ1) [3]; oleic acid 10 mg/liter, iso-butanol 1%",0.0829
same,Growth (OD600) of BP63 (ΔfabZ1),"BP63 (ΔfabZ1) [3]; oleic acid 10 mg/liter, iso-butanol 1.5%",0.0601
same,Growth (OD600) of BP63 (ΔfabZ1),"BP63 (ΔfabZ1) [3]; oleic acid 10 mg/liter, iso-butanol 2%",0.0701
same,Growth (OD600) of BP63 (ΔfabZ1),"BP63 (ΔfabZ1) [3]; oleic acid 10 mg/liter, iso-butanol 2.5%",0.0684
same,Growth (OD600) of BP63 (ΔfabZ1),"BP63 (ΔfabZ1) [3]; oleic acid 10 mg/liter, iso-butanol 3%",0.0397
same,Growth (OD600) of BP63 (ΔfabZ1),"BP63 (ΔfabZ1) [3]; oleic acid 20 mg/liter, iso-butanol 1%",0.2291
same,Growth (OD600) of BP63 (ΔfabZ1),"BP63 (ΔfabZ1) [3]; oleic acid 20 mg/liter, iso-butanol 1.5%",0.2375
same,Growth (OD600) of BP63 (ΔfabZ1),"BP63 (ΔfabZ1) [3]; oleic acid 20 mg/liter, iso-butanol 2%",0.068
same,Growth (OD600) of BP63 (ΔfabZ1),"BP63 (ΔfabZ1) [3]; oleic acid 20 mg/liter, iso-butanol 2.5%",0.0594
same,Growth (OD600) of BP63 (ΔfabZ1),"BP63 (ΔfabZ1) [3]; oleic acid 20 mg/liter, iso-butanol 3%",0.0399
same,Growth (OD600) of BP63 (ΔfabZ1),"BP63 (ΔfabZ1) [3]; oleic acid 30 mg/liter, iso-butanol 1%, listed as iso-butanol",0.7686
same,Growth (OD600) of BP63 (ΔfabZ1),"BP63 (ΔfabZ1) [3]; oleic acid 30 mg/liter, iso-butanol 1%, listed as isobutanol",0.769
same,Growth (OD600) of BP63 (ΔfabZ1),"BP63 (ΔfabZ1) [3]; oleic acid 30 mg/liter, iso-butanol 1.5%, listed as iso-butanol",0.7137
same,Growth (OD600) of BP63 (ΔfabZ1),"BP63 (ΔfabZ1) [3]; oleic acid 30 mg/liter, iso-butanol 1.5%, listed as isobutanol",0.714
same,Growth (OD600) of BP63 (ΔfabZ1),"BP63 (ΔfabZ1) [3]; oleic acid 30 mg/liter, iso-butanol 2%",0.402
same,Growth (OD600) of BP63 (ΔfabZ1),"BP63 (ΔfabZ1) [3]; oleic acid 30 mg/liter, iso-butanol 2.5%",0.1606
same,Growth (OD600) of BP63 (ΔfabZ1),"BP63 (ΔfabZ1) [3]; oleic acid 30 mg/liter, iso-butanol 3%",0.0995
same,Growth (OD600) of BP63 (ΔfabZ1),"BP63 (ΔfabZ1) [3]; oleic acid 40 mg/liter, iso-butanol 1%",1.2315
same,Growth (OD600) of BP63 (ΔfabZ1),"BP63 (ΔfabZ1) [3]; oleic acid 40 mg/liter, iso-butanol 1.5%",0.8852
same,Growth (OD600) of BP63 (ΔfabZ1),"BP63 (ΔfabZ1) [3]; oleic acid 40 mg/liter, iso-butanol 2%",0.8012
same,Growth (OD600) of BP63 (ΔfabZ1),"BP63 (ΔfabZ1) [3]; oleic acid 40 mg/liter, iso-butanol 2.5%",0.1793
same,Growth (OD600) of BP63 (ΔfabZ1),"BP63 (ΔfabZ1) [3]; oleic acid 40 mg/liter, iso-butanol 3%",0.1358
same,Growth (OD600) of BP63 (ΔfabZ1),"BP63 (ΔfabZ1) [3]; oleic acid 50 mg/liter, iso-butanol 1%",1.2567
same,Growth (OD600) of BP63 (ΔfabZ1),"BP63 (ΔfabZ1) [3]; oleic acid 50 mg/liter, iso-butanol 1.5%",1.257
same,Growth (OD600) of BP63 (ΔfabZ1),"BP63 (ΔfabZ1) [3]; oleic acid 50 mg/liter, iso-butanol 2%",0.5464
same,Growth (OD600) of BP63 (ΔfabZ1),"BP63 (ΔfabZ1) [3]; oleic acid 50 mg/liter, iso-butanol 2.5%",0.1654
same,Growth (OD600) of BP63 (ΔfabZ1),"BP63 (ΔfabZ1) [3]; oleic acid 50 mg/liter, iso-butanol 3%",0.1185
same,effect of isobutanol on growth of the fabZ1 mutant,BP63 (ΔfabZ1) [3]; oleic acid supplied at sub-optimal levels,enhanced the growth
"CCCCCCCC/C=C\CCCCCCCC(=O)O [Oleic acid, oleic acid]",growth rate of BP63 compared with parental strain BP15,"BP63 (ΔfabZ1) [2]; 55 mg/liter oleic acid, all concentrations of isobutanol",essentially identical
same,Growth (OD600) of BP63 (ΔfabZ1),"BP63 (ΔfabZ1) [3]; oleic acid 10 mg/liter, iso-butanol 0%",0.0835
same,Growth (OD600) of BP63 (ΔfabZ1),"BP63 (ΔfabZ1) [3]; oleic acid 20 mg/liter, iso-butanol 0%",0.1046
same,Growth (OD600) of BP63 (ΔfabZ1),"BP63 (ΔfabZ1) [3]; oleic acid 30 mg/liter, iso-butanol 0%",0.153 and 0.1526
same,Growth (OD600) of BP63 (ΔfabZ1),"BP63 (ΔfabZ1) [3]; oleic acid 40 mg/liter, iso-butanol 0%",0.2976
same,Growth (OD600) of BP63 (ΔfabZ1),"BP63 (ΔfabZ1) [3]; oleic acid 50 mg/liter, iso-butanol 0%",1.181
same,growth of BP63 compared with fabZ1^+ control strain BP15,BP63 (ΔfabZ1) [4]; 100 or 200 mg/liter of oleic acid,equivalent
same,growth of BP63,BP63 (ΔfabZ1) [4]; low concentrations of oleic acid up to 12 mg/liter,essentially no growth
same,OD600 BP63 (ΔfabZ1),BP63 (ΔfabZ1) [4]; oleic acid 1.5 mg/liter,0.0091
same,OD600 BP63 (ΔfabZ1),BP63 (ΔfabZ1) [4]; oleic acid 3 mg/liter,0.0081
same,OD600 BP63 (ΔfabZ1),BP63 (ΔfabZ1) [4]; oleic acid 6 mg/liter,0.0084
same,OD600 BP63 (ΔfabZ1),BP63 (ΔfabZ1) [4]; oleic acid 12 mg/liter,0.0234
same,OD600 BP63 (ΔfabZ1),BP63 (ΔfabZ1) [4]; oleic acid 25 mg/liter,0.6943
same,OD600 BP63 (ΔfabZ1),BP63 (ΔfabZ1) [4]; oleic acid 100 mg/liter,1.1452
same,OD600 BP63 (ΔfabZ1),BP63 (ΔfabZ1) [4]; oleic acid 200 mg/liter,1.3725
same,Supports growth of BP63,[5],YES
same,OD600 BP15 (fabZ1^+),BP15 (fabZ1^+); oleic acid 1.5 mg/liter,0.9449
same,OD600 BP15 (fabZ1^+),BP15 (fabZ1^+); oleic acid 3 mg/liter,0.8375
same,OD600 BP15 (fabZ1^+),BP15 (fabZ1^+); oleic acid 6 mg/liter,0.9459
same,OD600 BP15 (fabZ1^+),BP15 (fabZ1^+); oleic acid 12 mg/liter,0.9681
same,OD600 BP15 (fabZ1^+),BP15 (fabZ1^+); oleic acid 25 mg/liter,1.0069
same,OD600 BP15 (fabZ1^+),BP15 (fabZ1^+); oleic acid 100 mg/liter,1.0915
same,OD600 BP15 (fabZ1^+),BP15 (fabZ1^+); oleic acid 200 mg/liter,1.3187
